Results as given in the supplement of paper PMC10307832.

Legend:
Assay in all cases: relative viability (nuclei count vs DMSO), 5 days (fraction); higher = more cells survive
COR-L23 = tested on: COR-L23
Method in brief: (§1)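 Lung cancer cell lines were pin-tool dosed in 1536-well plates on the day after seeding, with either a lone drug or a fixed anchor-drug dose plus five library-drug doses (not always all listed) in √10 steps. Nuclei were counted on 4× images after 5 days. Relative viability is the ratio of treated-well to vehicle-well nuclei counts, with each value a median of duplicate plates.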

NCI-H1650 = tested on: NCI-H1650
Method in brief: as §1

A-427 = tested on: A-427
Method in brief: as §1

SK-MES-1 = tested on: SK-MES-1
Method in brief: as §1

ChaGo-K-1 = tested on: ChaGo-K-1
Method in brief: as §1

NCI-H650 = tested on: NCI-H650
Method in brief: as §1

NCI-H1915 = tested on: NCI-H1915
Method in brief: as §1

NCI-H3122 = tested on: NCI-H3122
Method in brief: as §1

NCI-H661 = tested on: NCI-H661
Method in brief: as §1

NCI-H2087 = tested on: NCI-H2087
Method in brief: as §1

EKVX = tested on: EKVX
Method in brief: as §1

LOU-NH91 = tested on: LOU-NH91
Method in brief: as §1

HCC-366 = tested on: HCC-366
Method in brief: as §1

HOP-62 = tested on: HOP-62
Method in brief: as §1

EPLC-272H = tested on: EPLC-272H
Method in brief: as §1

NCI-H2023 = tested on: NCI-H2023
Method in brief: as §1

NCI-H1734 = tested on: NCI-H1734
Method in brief: as §1

NCI-H358 = tested on: NCI-H358
Method in brief: as §1

NCI-H1395 = tested on: NCI-H1395
Method in brief: as §1

HCC-78 = tested on: HCC-78
Method in brief: as §1

NCI-H838 = tested on: NCI-H838
Method in brief: as §1

NCI-H596 = tested on: NCI-H596
Method in brief: as §1

Compound `O=C(O)CCCCC(CCSCc1ccccc1)SCc1ccccc1` (centres undefined) [CPI-613] + COc1cc2c(Oc3ccc(NC(=O)C4(C(=O)Nc5ccc(F)cc5)CC4)cc3F)ccnc2cc1OCCCN1CCOCC1 [Foretinib] (partner 0.25 µM) has a relative viability (COR-L23; first compound 5 µM) of 0.983, a relative viability (COR-L23; first compound 15.81 µM) of 0.995 and a relative viability (COR-L23; first compound 50 µM) of 0.714. It also gave a relative viability (COR-L23; first compound 158.11 µM) of 0.614, a relative viability (COR-L23; first compound 500 µM) of 0.0368 and a relative viability (NCI-H1650; first compound 5 µM) of 1.35. The relative viability (NCI-H1650; first compound 15.81 µM) was 0.905, the relative viability (NCI-H1650; first compound 50 µM) was 1.16 and the relative viability (NCI-H1650; first compound 158.11 µM) was 0.0583. It also gave a relative viability (NCI-H1650; first compound 500 µM) of 0.0222, a relative viability (A-427; first compound 5 µM) of 1.14 and a relative viability (A-427; first compound 15.81 µM) of 1.11. For the same compound, the relative viability (A-427; first compound 50 µM) was 0.86, the relative viability (A-427; first compound 158.11 µM) was 0.526 and the relative viability (A-427; first compound 500 µM) was 0.131. It also gave a relative viability (SK-MES-1; first compound 5 µM) of 0.999, a relative viability (SK-MES-1; first compound 15.81 µM) of 0.901 and a relative viability (SK-MES-1; first compound 50 µM) of 0.843. For the same compound, the relative viability (SK-MES-1; first compound 158.11 µM) was 0.831, the relative viability (SK-MES-1; first compound 500 µM) was 0.84 and the relative viability (ChaGo-K-1; first compound 5 µM) was 0.818. The relative viability (ChaGo-K-1; first compound 15.81 µM) was 0.901, the relative viability (ChaGo-K-1; first compound 50 µM) was 0.929 and the relative viability (ChaGo-K-1; first compound 158.11 µM) was 0.245. It also gave a relative viability (ChaGo-K-1; first compound 500 µM) of 0.105, a relative viability (NCI-H650; first compound 5 µM) of 0.947 and a relative viability (NCI-H650; first compound 15.81 µM) of 1. For the same compound, the relative viability (NCI-H650; first compound 50 µM) was 0.979, the relative viability (NCI-H650; first compound 158.11 µM) was 0.836 and the relative viability (NCI-H650; first compound 500 µM) was 0.806. For the same compound, the relative viability (NCI-H1915; first compound 5 µM) was 1.04, the relative viability (NCI-H1915; first compound 15.81 µM) was 1.09 and the relative viability (NCI-H1915; first compound 50 µM) was 1.06. The relative viability (NCI-H1915; first compound 158.11 µM) was 0.309, the relative viability (NCI-H1915; first compound 500 µM) was 0.132 and the relative viability (NCI-H3122; first compound 5 µM) was 0.989. For the same compound, the relative viability (NCI-H3122; first compound 15.81 µM) was 0.895, the relative viability (NCI-H3122; first compound 50 µM) was 0.971 and the relative viability (NCI-H3122; first compound 158.11 µM) was 0.858. It also gave a relative viability (NCI-H3122; first compound 500 µM) of 0.0742, a relative viability (NCI-H661; first compound 5 µM) of 0.982 and a relative viability (NCI-H661; first compound 15.81 µM) of 1.06. The relative viability (NCI-H661; first compound 50 µM) was 0.841, the relative viability (NCI-H661; first compound 158.11 µM) was 0.371 and the relative viability (NCI-H661; first compound 500 µM) was 0.142. The relative viability (NCI-H2087; first compound 5 µM) was 1.09, the relative viability (NCI-H2087; first compound 15.81 µM) was 1.11 and the relative viability (NCI-H2087; first compound 50 µM) was 1.05. The relative viability (NCI-H2087; first compound 158.11 µM) was 0.0825, the relative viability (NCI-H2087; first compound 500 µM) was 0.0183 and the relative viability (EKVX; first compound 5 µM) was 0.83. The relative viability (EKVX; first compound 15.81 µM) was 0.754, the relative viability (EKVX; first compound 50 µM) was 0.983 and the relative viability (EKVX; first compound 158.11 µM) was 0.399. It also gave a relative viability (EKVX; first compound 500 µM) of 0.531, a relative viability (LOU-NH91; first compound 5 µM) of 0.863 and a relative viability (LOU-NH91; first compound 15.81 µM) of 0.902. The relative viability (LOU-NH91; first compound 50 µM) was 0.949, the relative viability (LOU-NH91; first compound 158.11 µM) was 0.963 and the relative viability (LOU-NH91; first compound 500 µM) was 0.916. For the same compound, the relative viability (HCC-366; first compound 5 µM) was 0.963, the relative viability (HCC-366; first compound 15.81 µM) was 0.962 and the relative viability (HCC-366; first compound 50 µM) was 0.989. For the same compound, the relative viability (HCC-366; first compound 158.11 µM) was 0.322, the relative viability (HCC-366; first compound 500 µM) was 0.0079 and the relative viability (HOP-62; first compound 5 µM) was 1.06. For the same compound, the relative viability (HOP-62; first compound 15.81 µM) was 1.04, the relative viability (HOP-62; first compound 50 µM) was 1.11 and the relative viability (HOP-62; first compound 158.11 µM) was 0.39. It also gave a relative viability (HOP-62; first compound 500 µM) of 0.231, a relative viability (EPLC-272H; first compound 5 µM) of 0.613 and a relative viability (EPLC-272H; first compound 15.81 µM) of 0.597. The relative viability (EPLC-272H; first compound 50 µM) was 0.69, the relative viability (EPLC-272H; first compound 158.11 µM) was 0.158 and the relative viability (EPLC-272H; first compound 500 µM) was 0.0081. The relative viability (NCI-H2023; first compound 5 µM) was 0.704, the relative viability (NCI-H2023; first compound 15.81 µM) was 0.719 and the relative viability (NCI-H2023; first compound 50 µM) was 0.875. For the same compound, the relative viability (NCI-H2023; first compound 158.11 µM) was 0.0718, the relative viability (NCI-H2023; first compound 500 µM) was 0.0092 and the relative viability (NCI-H1734; first compound 5 µM) was 0.792. It also gave a relative viability (NCI-H1734; first compound 15.81 µM) of 0.984, a relative viability (NCI-H1734; first compound 50 µM) of 0.859 and a relative viability (NCI-H1734; first compound 158.11 µM) of 0.332. The relative viability (NCI-H1734; first compound 500 µM) was 0.104, the relative viability (NCI-H358; first compound 15.81 µM) was 0.648 and the relative viability (NCI-H358; first compound 50 µM) was 0.713. For the same compound, the relative viability (NCI-H358; first compound 158.11 µM) was 0.369, the relative viability (NCI-H358; first compound 500 µM) was 0.0356 and the relative viability (NCI-H1395; first compound 5 µM) was 0.973. It also gave a relative viability (NCI-H1395; first compound 15.81 µM) of 0.971, a relative viability (NCI-H1395; first compound 50 µM) of 0.916 and a relative viability (NCI-H1395; first compound 158.11 µM) of 0.94. The relative viability (NCI-H1395; first compound 500 µM) was 0.961, the relative viability (HCC-78; first compound 5 µM) was 0.497 and the relative viability (HCC-78; first compound 15.81 µM) was 0.554. The relative viability (HCC-78; first compound 50 µM) was 0.545, the relative viability (HCC-78; first compound 158.11 µM) was 0.52 and the relative viability (HCC-78; first compound 500 µM) was 0.473. For the same compound, the relative viability (NCI-H838; first compound 5 µM) was 0.98, the relative viability (NCI-H838; first compound 15.81 µM) was 1.02 and the relative viability (NCI-H838; first compound 50 µM) was 1.03. The relative viability (NCI-H838; first compound 158.11 µM) was 0.657, the relative viability (NCI-H838; first compound 500 µM) was 0.116 and the relative viability (NCI-H596; first compound 5 µM) was 0.862. The relative viability (NCI-H596; first compound 15.81 µM) was 0.969, the relative viability (NCI-H596; first compound 50 µM) was 0.813 and the relative viability (NCI-H596; first compound 158.11 µM) was 0.592. For the same compound, the relative viability (NCI-H596; first compound 500 µM) was 0.0375.
